Source: patent US9079866B2, “Flap modulators” (JANSSEN PHARMACEUTICA NV, priority 2013, dated 2015)
Counter-ions that a name gives are not always drawn. Like-named read-outs stand apart in the source and are kept apart here.

Tests used:
[1] = test system: leukotriene pathway in human whole blood (LTB4 levels); assay: Human whole blood assay (A23187-stimulated LTB4); type: cell-based; settings: Homo sapiens, read-out: LTB4 IC50 1:1
Summary of the method: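 Compounds are pre-incubated 15 min at 37° Celsius in RPMI-diluted (1:1) heparinised whole blood before a 30 min A23187 stimulus (7 μg/mL). Plasma LTB4 is read by immunoassay kit, with IC50 calculated from a 4-parameter equation.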

[2] = molecular target: human FLAP (Homo sapiens (Human), UniProt P20292); assay: FLAP binding assay (HTRF format)
Summary of the method: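 Samples were run in duplicate on each of two plates and the plate results averaged. Read-out is the HTRF signal ratio.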

[3] = human whole blood diluted 1:1 in RPMI, A23187-stimulated LTB4
[4] = human FLAP wild type, HTRF format, average of two plates, duplicates
[5] = human whole blood diluted 1:1, A23187-stimulated
[6] = read-out: FLAP Binding wild type HTRF Ki

Chain of human FLAP (P20292 whole entry): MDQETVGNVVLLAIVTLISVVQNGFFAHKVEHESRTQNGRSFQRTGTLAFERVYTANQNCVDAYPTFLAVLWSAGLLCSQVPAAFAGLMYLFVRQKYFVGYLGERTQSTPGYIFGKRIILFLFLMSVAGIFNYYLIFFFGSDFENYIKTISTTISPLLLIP

Cc1ncc(CNS(=O)(=O)c2ccccc2-c2ccc(-c3cnc(N)cn3)c(F)c2)c(N)n1 [Example 165, N-[(4-Amino-2-methylpyrimidin-5-yl)methyl]-4′-(5-aminopyrazin-2-yl)-3′-fluorobiphenyl-2-sulfonamide]
IC50 [1, 3]: 0.879 µM | Ki [2, 4]: 0.018 µM

CN(c1ccccc1-c1ccc(-c2cnc3[nH]ccc3n2)c(F)c1)S(C)(=O)=O [Example 492, N-[3′-Fluoro-4′-(5H-pyrrolo[2,3-b]pyrazin-2-yl)biphenyl-2-yl]-N-methylmethanesulfonamide]
IC50 [1, 5]: 0.155 µM | Ki ([2]; wild type FLAP, HTRF format): 0.015 µM

CNS(=O)(=O)c1cc(C(F)(F)F)ccc1-c1ccc(-c2cnc(N)nc2)c(F)c1 [Example 325, 4′-(2-Aminopyrimidin-5-yl)-3′-fluoro-N-methyl-4-(trifluoromethyl)biphenyl-2-sulfonamide]
IC50 [1, 3]: 0.091 µM | Ki [2, 4]: 0.004 µM

Nc1cnc(-c2ccc(-c3ccccc3N3CCCS3(=O)=O)cc2F)cn1 [Example 856, 5-[2′-(1,1-Dioxidoisothiazolidin-2-yl)-3-fluorobiphenyl-4-yl]pyrazin-2-amine]
IC50 [1, 5]: 0.0839 µM | Ki ([2]; wild type FLAP, HTRF format): 0.0605 µM

Cc1cc(C)nc(Oc2ccccc2-c2ccc(-c3cnc(N)nc3)c(F)c2)n1 [Example 609, 5-{2′-[(4,6-Dimethylpyrimidin-2-yl)oxy]-3-fluorobiphenyl-4-yl}pyrimidin-2-amine]
IC50 [1, 5]: 0.768 µM | Ki ([2]; wild type FLAP, HTRF format): 0.246 µM

O=S(=O)(c1ccccc1-c1ccc(-c2cnc3c(c2)OCCN3)c(F)c1)N1CCCCC1 [Example 386, 7-[3-Fluoro-2′-(piperidin-1-ylsulfonyl)biphenyl-4-yl]-3,4-dihydro-2H-pyrido[3,2-b][1,4]oxazine]
IC50 [1, 3]: 0.077 µM | Ki [2, 4]: 0.002 µM

Nc1cnc(-c2ccc(-c3ccccc3S(=O)(=O)C3CCCC3)cc2F)cn1 [Example 195, 5-[2′-(Cyclopentylsulfonyl)-3-fluorobiphenyl-4-yl]pyrazin-2-amine]
IC50 [1, 3]: 0.093 µM | Ki [2, 4]: 0.003 µM

Nc1ncc(-c2ccc(-c3ccccc3-c3cnc(N)nc3)cc2F)cn1 [Example 844, 5,5′-(3′-Fluorobiphenyl-2,4′-diyl)dipyrimidin-2-amine]
IC50 [1, 5]: 0.907 µM | Ki ([2]; wild type FLAP, HTRF format): 0.509 µM

NC(=O)C1CCN(S(=O)(=O)c2ccccc2-c2ccc(-c3cnc(N)nc3)c(F)c2)CC1 [Example 709, 1-((4′-(2-Aminopyrimidin-5-yl)-3′-fluoro-[1,1′-biphenyl]-2-yl)sulfonyl)piperidine-4-carboxamide]
IC50 [1, 5]: 0.268 µM | Ki ([2]; wild type FLAP, HTRF format): 0.0054 µM

Nc1ccc(Oc2ccccc2-c2ccc(-c3cnc(N)cn3)c(F)c2)nc1 [Example 620, 5-{2′-[(5-Aminopyridin-2-yl)oxy]-3-fluorobiphenyl-4-yl}pyrazin-2-amine]
IC50 [1, 5]: 0.0132 µM | Ki ([2]; wild type FLAP, HTRF format): 0.0019 µM

Nc1cc(-c2ccc(-c3ccccc3S(=O)(=O)NC3(CO)CCCC3)cc2F)cc2cc[nH]c12 [Example 456, 4′-(7-Amino-1H-indol-5-yl)-3′-fluoro-N-[1-(hydroxymethyl)cyclopentyl]biphenyl-2-sulfonamide]
IC50 [1, 5]: 0.114 µM | Ki ([2]; wild type FLAP, HTRF format): 0.003 µM

CCC(C)(C)NS(=O)(=O)c1ccccc1-c1ccc(-c2ccc(N)nc2)c(F)c1 [Example 349, 4′-(6-Aminopyridin-3-yl)-3′-fluoro-N-(tert-pentyl)-[1,1′-biphenyl]-2-sulfonamide]
IC50 [1, 3]: 0.013 µM | Ki [2, 4]: 0.001 µM

N#CCOc1ccccc1-c1ccc(-c2cnc(N)nc2)c(F)c1 [Example 643, {[4′-(2-Aminopyrimidin-5-yl)-3′-fluorobiphenyl-2-yl]oxy}acetonitrile]
IC50 [1, 5]: 4.29 µM | Ki ([2]; wild type FLAP, HTRF format): 0.323 µM

Nc1cnc(-c2ccc(-c3ccccc3SC(F)(F)F)cc2F)cn1 [Example 189, 5-{3-Fluoro-2′-[(trifluoromethyl)sulfanyl]biphenyl-4-yl}pyrazin-2-amine]
IC50 [1, 3]: 1.65 µM | Ki [2, 4]: 0.173 µM

COc1ncccc1-c1ccc(-c2cnc(N)cn2)c(F)c1 [Example 404, 5-[2-Fluoro-4-(2-methoxypyridin-3-yl)phenyl]pyrazin-2-amine]
IC50 [1, 5]: 1.49 µM | Ki ([2]; wild type FLAP, HTRF format): 0.155 µM

COc1ncc(-c2ccccc2-c2ccc(-c3cnc(N)cn3)c(F)c2)cn1 [Example 846, 5-[3-Fluoro-2′-(2-methoxypyrimidin-5-yl)biphenyl-4-yl]pyrazin-2-amine]
IC50 [1, 5]: 0.0418 µM | Ki ([2]; wild type FLAP, HTRF format): 0.0105 µM

CCN(CC)S(=O)(=O)c1ccccc1-c1ccc(-c2cnc(N)nc2)c(F)c1 [Example 300, 4′-(2-Aminopyrimidin-5-yl)-N,N-diethyl-3′-fluorobiphenyl-2-sulfonamide trifluoroacetic acid salt]
IC50 [1, 3]: 0.12 µM | Ki [2, 4]: 0.013 µM

C[C@@H]1CNCCN1S(=O)(=O)c1ccccc1-c1ccc(-c2cnc(N)cn2)c(F)c1 [Example 145, (R)-5-(3-Fluoro-2′-((2-methylpiperazin-1-yl)sulfonyl)-[1,1′-biphenyl]-4-yl)pyrazin-2-amine]
IC50 [1, 3]: 0.021 µM | Ki [2, 4]: 0.017 µM

Nc1ccnc(Oc2cc(C(F)(F)F)ccc2-c2ccc(-c3cnc(N)nc3)c(F)c2)n1 [Example 559, 5-{2′-[(4-Aminopyrimidin-2-yl)oxy]-3-fluoro-4′-(trifluoromethyl)biphenyl-4-yl}pyrimidin-2-amine]
IC50 [1, 5]: 0.055 µM | Ki ([2]; wild type FLAP, HTRF format): 0.002 µM

Nc1cnc(-c2ccc(-c3ccccc3S(=O)(=O)C3CC3)cc2F)cn1 [Example 197, 5-[2′-(Cyclopropylsulfonyl)-3-fluorobiphenyl-4-yl]pyrazin-2-amine]
IC50 [1, 3]: 0.083 µM | Ki [2, 4]: 0.01 µM

Nc1cnc(-c2ccc(-c3ccccc3S(=O)(=O)N3CCC(O)(C(F)(F)F)CC3)cc2F)cn1 [Example 55, 1-{[4′-(5-Aminopyrazin-2-yl)-3′-fluorobiphenyl-2-yl]sulfonyl}-4-(trifluoromethyl)piperidin-4-ol]
IC50 [1, 3]: 1.23 µM | Ki [2, 4]: 0.001 µM

O=S(=O)(c1ccccc1-c1ccc(-c2cnc3[nH]ccc3n2)c(F)c1)N1CCOCC1 [Example 375, 2-[3-Fluoro-2′-(morpholin-4-ylsulfonyl)biphenyl-4-yl]-5H-pyrrolo[2,3-b]pyrazine]
IC50 [1, 3]: 0.031 µM | Ki [2, 4]: 0.002 µM

C[C@H](NC(=O)c1cc(C(F)(F)F)ccc1-c1ccc(-c2cnc(N)nc2)c(F)c1)C(F)(F)F [Example 788, 2-[4-(2-Aminopyrimidin-5-yl)-3-fluoro-phenyl]-5-(trifluoromethyl)-N-[(1S)-2,2,2-trifluoro-1-methyl-ethyl]benzamide]
IC50 [1, 5]: 0.272 µM | Ki ([2]; wild type FLAP, HTRF format): 0.0178 µM

CN(c1ccccc1-c1ccc(-c2cnc(N)cn2)c(F)c1)S(C)(=O)=O [Example 490, N-[4′-(5-Aminopyrazin-2-yl)-3′-fluorobiphenyl-2-yl]-N-methylmethanesulfonmide]
IC50 [1, 5]: 0.269 µM | Ki ([2]; wild type FLAP, HTRF format): 0.354 µM

C[Si](C)(C)CCOCS(=O)(=O)c1ccccc1-c1ccc(-c2cnc(N)cn2)c(F)c1 [Example 245, 5-[3-Fluoro-2′-({[2-(trimethylsilyl)ethoxy]methyl}sulfonyl)biphenyl-4-yl]pyrazin-2-amine hydrochloride]
IC50 [1]: 0.233 µM | Ki [2, 6]: 0.045 µM

CC(C)(C)[C@H](CO)NS(=O)(=O)c1ccccc1-c1ccc(-c2cnc(N)cn2)c(F)c1 [Example 150, (R)-4′-(5-Aminopyrazin-2-yl)-3′-fluoro-N-(1-hydroxy-3,3-dimethylbutan-2-yl)-[1,1′-biphenyl]-2-sulfonamide]
IC50 [1, 3]: 0.011 µM | Ki [2, 4]: 0.001 µM

Nc1ncc(-c2ccc(-c3ccccc3Sc3cnccn3)cc2F)cn1 [Example 333, 5-[3-Fluoro-2′-(pyrazin-2-ylsulfanyl)biphenyl-4-yl]pyrimidin-2-amine hydrochloride]
IC50 [1, 3]: 0.671 µM | Ki [2, 4]: 0.045 µM

Nc1cnc(-c2ccc(-c3ccccc3S(=O)(=O)N[C@H]3CCCNC3=O)cc2F)cn1 [Example 108, (S)-4′-(5-Aminopyrazin-2-yl)-3′-fluoro-N-(2-oxopiperidin-3-yl)-[1,1′-biphenyl]-2-sulfonamide]
IC50 [1, 3]: 0.049 µM | Ki [2, 4]: 0.01 µM

Nc1ncc(-c2ccc(-c3ccc(C(F)(F)F)cc3C(=O)N3CCOCC3)cc2F)cn1 [Example 522, 5-[3-Fluoro-2′-(morpholin-4-ylcarbonyl)-4′-(trifluoromethyl)biphenyl-4-yl]pyrimidin-2-amine]
IC50 [1, 5]: 0.393 µM | Ki ([2]; wild type FLAP, HTRF format): 0.348 µM

Nc1ncc(-c2ccc(-c3ccccc3S(=O)(=O)N[C@H](c3ccccc3)C(F)(F)F)cc2F)cn1 [Example 291, 4′-(2-Aminopyrimidin-5-yl)-3′-fluoro-N-[(1R)-2,2,2-trifluoro-1-phenylethyl]biphenyl-2-sulfonamide trifluoroacetic acid salt]
IC50 [1, 3]: 0.421 µM | Ki [2, 6]: 0.007 µM

C[C@H](CO)NS(=O)(=O)c1ccccc1-c1ccc(-c2cnc3[nH]ccc3c2)c(F)c1 [Example 363, 3′-Fluoro-N-[(1R)-2-hydroxy-1-methylethyl]-4′-(1H-pyrrolo[2,3-b]pyridin-5-yl)biphenyl-2-sulfonamide]
IC50 [1, 3]: 0.184 µM | Ki [2, 4]: 0.001 µM

Nc1ncc(-c2ccc(-c3ccccc3S(=O)(=O)N3CCCC(CCO)C3)cc2F)cc1F (racemic) [Example 671, 2-(1-((4′-(6-Amino-5-fluoropyridin-3-yl)-3′-fluoro-[1,1′-biphenyl]-2-yl)sulfonyl)piperidin-3-yl)ethanol]
IC50 [1, 5]: 0.165 µM | Ki ([2]; wild type FLAP, HTRF format): 0.0157 µM

Nc1cnc(-c2ccc(-c3ccccc3Oc3ccnc(C(F)(F)F)n3)cc2F)cn1 [Example 547, 5-(3-Fluoro-2′-{[2-(trifluoromethyl)pyrimidin-4-yl]oxy}biphenyl-4-yl)pyrazin-2-amine]
IC50 [1, 5]: 0.104 µM | Ki ([2]; wild type FLAP, HTRF format): 0.035 µM

Nc1cnc(-c2ccc(-c3ccccc3Sc3cncc(N)n3)cc2F)cn1 [Example 742, 5-{2′-[(6-Aminopyrazin-2-yl)sulfanyl]-3-fluorobiphenyl-4-yl}pyrazin-2-amine]
IC50 [1, 5]: 0.0257 µM | Ki ([2]; wild type FLAP, HTRF format): 0.0029 µM
